Data published in patent EP2364976B1, “S1P receptor modulating compounds and use thereof” (EPIX Pharmaceuticals, Inc., priority 2007, dated 2007).
Where “and” joins values, the source holds several entries; their conditions need not be identical. Identical values can stand only once. Counter-ions that a name gives are not always drawn.

Molecular target: T1, hS1P1 (Homo sapiens, UniProt P21453)
T1 construct: expressed in transfected cells
Assay: hS1P1 EC50 (S1P receptor Ca2+ flux protocol, FLIPR, CHO K1 Gqi5 cells)
Format: cell-based
Conditions: several values per compound = repeat determinations as printed
Description: S1P receptor activity may also be measured by an SIP receptor (e.g., hS1P1, hS1P3, rS1P1, rS1P3 and parental cell) Ca^2+ Flux protocol as described below: • 1. Material • a. FLIPR buffer: 1x HBSS; 10mM HEPES • b. Cell growth media: • i. human and rat S1P1 and S1P3: F12-Ham's media; 10% FBS (qualified); 1x Pen/Strep/Glu; 300ug/mL Hygromycin; 400ug/mL Geneticin ii. Parental cell: human and rat S1P and S1P3: F12-Ham's media; 10% FBS (qualified); 1x Pen/Strep/Glu; 300ug/mL Hygromycin; • c. Cell seeding media; F12-Ham's media; 10% FBS (Charcoal/dextran stripped); 1x Pen/Strep/Glu; • d. Cell dissociation buffer: Versene from Invitrogen • e. Agonist (SIP) dissolving buffer: 0.4% (w/v) fatty-acid free BSA (Sigma # A8806) in FLIPR buffer • f. FLIPR dye: BD PBX Calcium assay kit; Cat#641077 is composed of Calcium indicator (Cat#850000) and 100x PBX signal enhancer (cat#850001). The 100x PBX signal enhancer is diluted into FLIPR buffer 1:100 and the calcium indicator is then added at 1:1000 ratio. • g. Cell plates (96-well): Greiner Cat#655090 • h. Compound plates (96-well): Costar #3365 • i. S1P stock solution preparation: S1P is purchased from CalBioChem (Catalog # 970471; 1mg vial; custom prep using methanol, & nitrogen gas drying inside glass vial; Storage @ -20°C). Dissolve 1 vial of SIP into 26.4ml of agonist dissolving buffer in a 50ml centrifuge tube; Remove label from bottle of SIP, open and drop entire bottle into tube. Sonicate at 37° for ½ hour. Clear solution of 100µM will result. This stock solution is aliquoted and stored at -80C • 2. Cell line maintenance • a. V5 tags were added at the N-terminus of hS1P1, hS1P3, rS1P1 and rS1P3. All four genes were transfected into CHO K1 cells which stably express Gqi5. • b. hS1P1 and hS1P3 were established as stable clones and rS1P1 and rS1P3 were sorted by anti V5 tag and established as stable pools after sorting. • c. Parental cell line CHO/K1 Gqi5 is used as the control. • d. All the cells are maintained in cell growth media and splitted twice a week using Versene. • e. All the cell lines are used under passage 30. • 3. Assay protocol • a. Cell seeding: Cells are lifted from the flask by Versene and seeded in cell plates at 50K/well in cell seeding media. Cells are grown overnight at 37 degree. • b. Cell loading: Cell seeding media is discarded. Cells are loaded with 50ul of FLIPR dye at RT for 90 min. Signal is stable for up to 5 h after dye loading. • c. Agonist (S1P) preparation: Frozen stock of S1P is thawed out and sonicated at 37c for 30 minutes every time before use. The stock is then diluted into FLIPR buffer at proper concentration. • d. Compound preparation: Compounds are dissolved in DMSO. A 3x, 10 point dilution of the compounds are carried out in DMSO. Then the compounds are diluted into assay buffer133x so that the DMSO concentration is 0.75%. • e. Activity measurement: The fluorescence signal change of the cells upon compound addition is monitored in FLIPRtetra. 25ul of compound is transferred into the cell plates (50ul of FLIPR dye; DMSO concentration: 0.25%). Signal is recorded for 90sec after compound addition. Then 50ul of 500nM SIP is added in the cell plate, and signal is recorded for 90 seconds upon addition. • 4. Data analysis • a. Peak value is calculated for each compound/S1P addition • b. The peak value of S1P at 200nM is used as high control (100%), and the peak value of buffer only is used as low control (0%). • c. Data is normalized against high and low controls using the following equation: POC_S = 100*(RAW-LO)/(HI-LO) [formula] • d. Peak value is plotted against the concentration of compound. • e. Curve is fitted using the 4 parameter fit: Y = (A+(B/(1+(((x/C))^(∧)D)))) [formula] where: Y is POC_S (or POC) • X is compound concentration • A is the minimum (EC50min or IC50min) • B is the maxmum (EC50max or IC50max) • C is the inflection point (EC50IP or IC50IP) • D is the hill slope (EC50 slope or IC50 slope).

T1 sequence (P21453 whole entry): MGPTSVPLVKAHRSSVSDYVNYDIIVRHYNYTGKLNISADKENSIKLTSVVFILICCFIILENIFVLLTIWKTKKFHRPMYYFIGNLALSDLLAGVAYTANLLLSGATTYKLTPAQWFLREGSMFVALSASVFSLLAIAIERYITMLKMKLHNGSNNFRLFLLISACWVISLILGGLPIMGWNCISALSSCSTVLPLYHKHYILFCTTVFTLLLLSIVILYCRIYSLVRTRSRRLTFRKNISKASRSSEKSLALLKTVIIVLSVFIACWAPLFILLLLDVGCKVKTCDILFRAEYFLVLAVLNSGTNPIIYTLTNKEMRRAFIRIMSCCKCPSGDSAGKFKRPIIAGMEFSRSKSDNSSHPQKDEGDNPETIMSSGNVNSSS

Row | EC50 | SMILES
1 | 0.016 µM | O=C(O)C1CN(Cc2ccc(-c3cc4cc(C(=NO)c5ccccc5)ccc4o3)c(F)c2)C1 (mixture of isomers) [Reference Compound 103, (E/Z)-1-((3-Fluoro-4-(5-((hydroxyimino)(phenyl)methyl)benzofuran-2-yl)phenyl)methyl)azetidine-3-carboxylic acid]
2 | 0.315 µM | O=C(O)C1CCN(Cc2ccc(-c3cc4cc(Cc5ccccc5)ccc4o3)c(F)c2)C1 (racemic) [Reference Compound 41]
3 | 0.027 µM | O=C(O)C1CN(Cc2ccc(-c3cc4cc(Cc5ccccc5)cnc4o3)c(F)c2)C1 [Inventive Compound 98, 1-((3-Fluoro-4-(5-(phenylmethyl)furo[2,3-b]pyridin-2-yl)phenyl)methyl)-3-azetidinecarboxylic acid]
4 | 0.003 µM | O=C(O)C1CN(Cc2ccc(-c3nc4cc(Sc5ccccc5)ccc4o3)c(F)c2)C1 [Inventive Compound 117, 1-((3-Fluoro-4-(5-(phenylthio)benzo[d]oxazol-2-yl)phenyl)methyl)azetidine-3-carboxylic acid]
5 | 0.054 µM | O=C(O)C1CN(Cc2ccc(-c3cn4ccc(Cc5ccccc5)cc4n3)c(F)c2)C1 [Inventive Compound 119, 1-(4-(7-Benzyl-1H-imidazo[1,2-a]pyridin-2-yl)-3-fluorobenzyl)azetidine-3-carboxylic acid, trifluoroacetic acid salt]
6 | 1.2 µM | O=C(O)C1CN(Cc2ccc(-c3cc4cc(-c5ccccc5)ccc4o3)cc2)C1 [Reference Compound 1, 1-(4-(5-Phenylbenzofuran-2-yl)benzyl)azetidine-3-carboxylic acid]
7 | 0.4 µM and 0.46 µM and 0.42 µM and 0.107 µM | O=C(O)C1CN(Cc2ccc(-c3cc4cc(Cc5ccccc5)ccc4o3)cc2)C1 [Reference Compound 4, 1-((4-(5-Benzylbenzofuran-2-yl)phenyl)methyl)azetidine-3-carboxylic acid]
8 | 0.58 µM | O=C(O)C1CN(Cc2ccc(-c3cc4cc(CCc5ccccc5)ccc4o3)cc2)C1 [Reference Compound 11, 1-((4-(5-phenethylbenzofaran-2-yl)phenyl)methyl)azetidine-3-carboxylic acid]
9 | 3.6 µM | O=C(O)C1CN(Cc2ccc(-c3cc4cc(-c5cccnc5)ccc4o3)cc2)C1 [Reference Compound 12, 1-(4-(5-(pyridin-3-yl)benzofuran-2-yl)benzyl)azetidine-3-carboxylic acid]
10 | 0.62 µM and 0.334 µM | O=C(O)C1CN(Cc2ccc(-c3cc4cc(Cc5ccccc5)ccc4o3)cc2F)C1 [Reference Compound 14, 1-((4-(5-Benzylbenzofuran-2-yl)2-fluorophenyl)methyl)azetidine-3-carboxylic acid]
11 | 0.16 µM and 0.038 µM | O=C(O)C1CN(Cc2ccc(-c3cc4cc(Cc5ccccc5)ccc4o3)c(F)c2)C1 [Reference Compound 15, 1-((4-(5-Benzylbenzofuran-2-yl)-3-fluorophenyl)methyl)azetidine-3-carboxylic acid]
12 | 2.9 µM | Cc1cccc(-c2ccc3oc(-c4ccc(CN5CC(C(=O)O)C5)cc4)cc3c2)n1 [Reference Compound 18, 1-(4-(5-(6-methylpyridin-2-yl)benzofuran-2-yl)benzyl)azetidine-3-carboxylic acid]
13 | 0.51 µM and 0.092 µM | O=C(O)C1CN(Cc2ccc(-c3cc4cc(Oc5ccccc5)ccc4o3)cc2)C1 [Reference Compound 19, 1-(4-(5-phenoxybenzofuran-2-yl)benzyl)azetidine-3-carboxylic acid]
14 | 1.8 µM | O=C(O)C1CN(Cc2ccc(-c3cc4cc(-c5cccs5)ccc4o3)cc2)C1 [Reference Compound 28, 1-((4-(5-(thiophen-2-yl)benzofuran-2-yl)phenyl)methyl)azetidine-3-carboxylic acid]

Second part, the compound before the results:

Row | SMILES | EC50
15 | O=C(O)C1CN(Cc2ccc(-c3nc4cc(Cc5ccccc5)ccc4s3)c(F)c2)C1 [Inventive Compound 114, 1-((4-(5-Benzylbenzo[d]thiazol-2-yl)-3-fluorophenyl)methyl)azetidine-3-carboxylic acid] | 0.029 µM
16 | CCCCc1ccc2oc(-c3ccc(CN4CC(C(=O)O)C4)cc3)cc2c1 [Reference Compound 2, 1-((4-(5-Butylbenzofuran-2-yl)phenyl)methyl)azetidine-3-carboxylic acid] | 0.2 µM and 0.51 µM and 0.867 µM
17 | CCCCOc1ccc2oc(-c3ccc(CN4CC(C(=O)O)C4)cc3)cc2c1 [Reference Compound 3] | 0.52 µM
18 | O=C(O)C1CN(Cc2ccc(-c3cc4cc(C5CCCCC5)ccc4o3)cc2)C1 [Reference Compound 6, 1-(4-(5-cyclohexylbenzofuran-2-yl)benzyl)azetidine-3-carboxylic acid] | 0.97 µM and 0.4 µM and 0.44 µM and 0.421 µM
19 | O=C(O)C1CCN(Cc2ccc(-c3cc4cc(C5CCCCC5)ccc4o3)cc2)CC1 [Reference Compound 7, 1-(4-(5-cyclohexylbenzofuran-2-yl)benzyl)piperidine-4-carboxylic acid] | 1.6 µM
20 | CCCCc1ccc2oc(-c3ccc(CN4CCC(C(=O)O)CC4)cc3)cc2c1 [Reference Compound 8, 1-((4-(5-Butylbenzofuran-2yl)phenyl)methyl)pineridine-4-carbocylic acid] | 3.1 µM
21 | O=C(O)C1CCN(Cc2ccc(-c3cc4cc(Cc5ccccc5)ccc4o3)cc2)CC1 [Reference Compound 9, 1-(4-(5-Benzylbenzofuran-2-yl)phenyl)methyl piperldine4-carboxylic acid] | 4.8 µM
22 | CC(C)Cc1ccc2oc(-c3ccc(CN4CC(C(=O)O)C4)cc3)cc2c1 [Reference Compound 10, 1-((4-(5-isobutylbenzofuran-2-yl)phenyl)methyl)azetidine-3-carboxylic acid] | 0.27 µM and 0.49 µM and 0.383 µM
23 | CC(C)Cc1ccc2oc(-c3ccc(CN4CCC(C(=O)O)CC4)cc3)cc2c1 [Reference Compound 13, 1-(4-(5-isobutylbenzofuran-2yl)benzyl)piperidine-4-carboxylic acid] | 1.7 µM
24 | CCCCOc1ccc2oc(-c3ccc(CN4CCC(C(=O)O)CC4)cc3)cc2c1 [Reference Compound 16] | 17 µM
25 | O=C(O)C1CN(Cc2ccc(-c3cc4cc(C5CCCCC5)ccc4o3)nc2)C1 [Reference Compound 17, 1-((6-(5-cyclohexylbenzofuran-2-yl)pyridin-3-yl)methyl)azetidine-3-carboxylic acid] | 0.72 µM and 0.302 µM
26 | CC(C)CCc1ccc2oc(-c3ccc(CN4CC(C(=O)O)C4)cc3)cc2c1 [Reference Compound 20, 1-((4-(5-Isopentylbenzofuran-2-yl)phenyl)methyl)azetidine-3-carboxylic acid] | 0.63 µM
27 | CCCCOc1ccc2cc(-c3ccc(CN4CC(C(=O)O)C4)cc3)oc2c1 [Reference Compound 21, 1-((4-(6-Butoxybenzofuran-2-yl)phenyl)methyl)azetidine-3-carboxylic acid] | 2 µM
28 | CCCCOc1ccc2oc(-c3ccc(CN4CC(C(=O)O)C4)cc3OC)cc2c1 [Reference Compound 24] | 0.42 µM and 0.7 µM
29 | CCCCOc1ccc2oc(-c3ccc(CN4CC(C(=O)O)C4)s3)cc2c1 [Reference Compound 25, 1-((5-(5-butoxybenzofuran-2-yl)thiophen-2-yl)methyl)azetidine-3-carboxylic acid] | 1.6 µM
30 | O=C(O)C1CN(Cc2ccc(-c3cc4cc(C5CCCCC5)ccc4o3)c(F)c2)C1 [Reference Compound 27] | 0.16 µM and 0.361 µM
